Assay results from US20190328819A1 (priority 2016, published 2019).
Where “and” joins values, the source holds several entries; their conditions need not be identical. Equal values may be shown once.

Tests used:
human dermal fibroblasts [1] = experiment: Exposure to As(III) (sodium arsenite), fibroblast survival; assay type: cell-based; settings: 9 mM sodium arsenite, 24 hours, no EDA
Procedure: Deschampsia antarctica extract (EDA): In experiments with fibroblasts, lyophilized EDA batch 051214 was used. The product was dissolved in a complete DMEM medium at a concentration of 5 mg/ml, stirred in a magnetic stirrer for 30 minutes and filtered through a 0.2 μm sterile cellulose acetate filter (Minisart, Sartorius).
As(III): sodium arsenite (NaAsO2) at a final concentration of 9 mM was dissolved in phenol red-free DMEM medium and filtered through a 0.2 μm sterile cellulose acetate filter (Minisart, Sartorius).
The cells used were human dermal fibroblasts isolated from the outer area of the retroauricular flap obtained from different healthy voluntary donors and preserved in liquid N2. The experiments used cells grown in culture flasks containing DMEM supplemented with 2 mM glutamine, […], 10% fetal bovine serum, in a Heraeus oven with an atmosphere of 7% CO2 and 93% humidified air at 37° C., until reaching about 90% of confluence, after which a new pass was performed by means of trypsinization. […]
The plates were washed twice with Hank's. […] It was carefully stirred in a plate stirrer and the absorbance at 550 nm was read in a BMG Fluostar Optima spectrophotometer.

human dermal fibroblasts [2] = experiment: Exposure to Cd(II), fibroblast survival; assay type: cell-based

In the case of `O=[As]O` [sodium arsenite], the “Survival % (vs CC)” value (human dermal fibroblasts [1]) is reported as 42.0% and 54.6% and 46.4% and the Survival x (human dermal fibroblasts [1]) is reported as 0.209 u abs and 0.206 u abs and 0.334 u abs.

`[Cl][Cd][Cl]` [Cd, cadmium chloride] was tested, and the Survival % (human dermal fibroblasts [2]; 3 μM Cd, 24 hours, no EDA) was 54.9%, the Survival x (human dermal fibroblasts [2]; 3 μM Cd, 24 hours, no EDA) was 0.188 u abs and the mortality (human dermal fibroblasts [2]; Cd(II) at 3 μM (FIG. 7)) was “about 50%”.
